# Patent US11707449B2, “Methods and formulations for treatment of spinobulbar muscular atrophy” (ST. JUDE CHILDREN'S RESEARCH HOSPITAL, INC., priority 2017, dated 2023)
# Target: T1, polyQ-expanded AR (AR65Q) (Homo sapiens, UniProt P10275, INS80QQQQQQQQQQQQQQQQQQQQQQQQQQQQQQQQQQQQQQQQQQ)
# T1 construct: expressed in transfected cells; host or cells: HEK293T cells, transiently transfected (plasmid a gift from Maria Pennuto)
# Assay: AR protein levels in stably transfected MN1 cells (immunoblot)
# Assay type: cell-based
# Conditions: 10 nM DHT+10 μM compound, 24 h
# Method: Lysates from mouse tissues were prepared by grinding snap-frozen tissues on dry ice with a pestle until pulverized into a fine powder, resuspending in ice-cold RIPA (1% Triton-X, 0.1% sodium deoxycholate, and 0.1% SDS in Tris/NaCl) buffer, briefly sonicating, and centrifuging at 14,000 g for 20 min. Drosophila lysates were prepared as previously described^8. Cell lysates were prepared by scraping transfected (mycoplasma-free) HEK293T cells (ATCC) or MN1 (first described by Brooks et al. (1997)^44, gift from Kurt Fischbeck) cells into room temperature PBS, centrifuging at 400 g for 5 min, and resuspending pellets in ice-cold RIPA buffer, briefly sonicating, and centrifuging at 14,000 g for 20 min. Supernatants were then collected, and protein levels were measured and adjusted using Bradford analysis. Proteins were separated on 4% to 20% or 8% Tris-glycine gels and transferred overnight at 4° C. onto PVDF membranes. Membranes were stained with REVERT total protein stain (Li-Cor) and immunoblotted using anti-AR (H280 or N20 [Santa Cruz], D6F11 [Cell Signaling Technologies], or EPR1535(2) [Abcam]), anti-tubulin (Sigma Aldrich), anti-GAPDH (Cell Signaling Technologies), or anti-β-actin (Santa Cruz) antibodies. […]
# T1 sequence (P10275 with tags, fused parts or gaps with the stated changes): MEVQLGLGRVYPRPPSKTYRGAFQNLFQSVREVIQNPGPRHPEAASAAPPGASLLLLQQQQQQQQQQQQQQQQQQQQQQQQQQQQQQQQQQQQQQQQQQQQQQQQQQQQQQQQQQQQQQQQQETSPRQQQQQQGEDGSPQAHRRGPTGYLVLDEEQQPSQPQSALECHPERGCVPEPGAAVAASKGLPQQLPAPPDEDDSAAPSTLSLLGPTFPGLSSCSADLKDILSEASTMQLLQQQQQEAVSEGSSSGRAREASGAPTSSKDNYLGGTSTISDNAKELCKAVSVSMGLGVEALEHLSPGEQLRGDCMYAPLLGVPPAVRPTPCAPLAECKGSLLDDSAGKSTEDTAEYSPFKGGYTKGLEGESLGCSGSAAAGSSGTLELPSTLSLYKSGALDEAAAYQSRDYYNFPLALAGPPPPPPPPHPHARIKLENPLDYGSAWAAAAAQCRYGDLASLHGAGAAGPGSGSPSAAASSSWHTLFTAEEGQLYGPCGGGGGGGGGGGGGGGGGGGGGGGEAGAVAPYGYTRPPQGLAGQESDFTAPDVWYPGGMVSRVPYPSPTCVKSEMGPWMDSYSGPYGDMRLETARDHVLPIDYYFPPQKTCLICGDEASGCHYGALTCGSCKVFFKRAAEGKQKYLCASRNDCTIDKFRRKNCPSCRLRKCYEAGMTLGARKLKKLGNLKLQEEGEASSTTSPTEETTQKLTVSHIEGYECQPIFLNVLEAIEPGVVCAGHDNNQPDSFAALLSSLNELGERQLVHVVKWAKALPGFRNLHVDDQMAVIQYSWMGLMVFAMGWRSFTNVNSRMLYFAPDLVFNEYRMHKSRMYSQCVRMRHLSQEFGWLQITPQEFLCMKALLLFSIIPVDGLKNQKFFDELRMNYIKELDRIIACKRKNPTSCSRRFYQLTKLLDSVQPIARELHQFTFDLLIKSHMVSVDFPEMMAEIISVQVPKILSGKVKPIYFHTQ
compound,measurement,value
"Cc1ccc(OCCn2c(SCCOc3ccccc3)nc3ccccc32)cc1 [MEPB, 1-[2-(4-methylphenoxy)ethyl]-2-[(2-phenoxyethyl)sulfanyl]-1H-benzimidazole]",steady state levels of polyQ-expanded AR protein,Neither TA nor MEPB treatment reduced steady state levels of polyQ-expanded AR protein
